Source: patent US7476729B2, “Dbait and uses thereof” (Institut Curie, priority 2003, dated 2009)

How the values were obtained:
[1] = target: T1, Ku complex (Homo sapiens, UniProt P12956+P13010); test: Band-shift assay with Hep2 nuclear protein extracts; assay type: binding; conditions: for binding of Ku: Hep2 nuclear extract, band-shift; for retarded bands in band-shift assay: 10 nM 32P radio-labelled Dbait, 0-320 ng/μL Hep2 nuclear proteins, 30° C., 10 minutes
T1 construct: in the presence of nuclear protein extracts from Hep2 cells according to standard protocol; endogenous in cells; host or cells: Hep2 cells (nuclear protein extract)
T1 sequence (P12956 whole entry): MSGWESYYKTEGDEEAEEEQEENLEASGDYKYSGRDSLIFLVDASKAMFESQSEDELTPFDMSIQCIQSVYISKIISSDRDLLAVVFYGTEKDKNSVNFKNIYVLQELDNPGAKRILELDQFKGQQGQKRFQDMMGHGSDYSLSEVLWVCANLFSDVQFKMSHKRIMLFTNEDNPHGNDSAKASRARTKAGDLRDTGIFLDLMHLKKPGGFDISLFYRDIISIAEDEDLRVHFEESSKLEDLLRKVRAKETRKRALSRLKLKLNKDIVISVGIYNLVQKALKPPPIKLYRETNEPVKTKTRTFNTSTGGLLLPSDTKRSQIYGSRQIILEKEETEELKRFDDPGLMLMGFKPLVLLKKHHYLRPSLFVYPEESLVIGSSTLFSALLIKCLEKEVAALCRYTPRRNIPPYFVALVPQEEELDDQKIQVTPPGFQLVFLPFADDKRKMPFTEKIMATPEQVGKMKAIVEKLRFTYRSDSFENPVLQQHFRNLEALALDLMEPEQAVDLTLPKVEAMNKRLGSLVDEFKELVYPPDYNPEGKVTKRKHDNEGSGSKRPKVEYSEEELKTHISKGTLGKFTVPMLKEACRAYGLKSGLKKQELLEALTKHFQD
T1 sequence (P13010 whole entry): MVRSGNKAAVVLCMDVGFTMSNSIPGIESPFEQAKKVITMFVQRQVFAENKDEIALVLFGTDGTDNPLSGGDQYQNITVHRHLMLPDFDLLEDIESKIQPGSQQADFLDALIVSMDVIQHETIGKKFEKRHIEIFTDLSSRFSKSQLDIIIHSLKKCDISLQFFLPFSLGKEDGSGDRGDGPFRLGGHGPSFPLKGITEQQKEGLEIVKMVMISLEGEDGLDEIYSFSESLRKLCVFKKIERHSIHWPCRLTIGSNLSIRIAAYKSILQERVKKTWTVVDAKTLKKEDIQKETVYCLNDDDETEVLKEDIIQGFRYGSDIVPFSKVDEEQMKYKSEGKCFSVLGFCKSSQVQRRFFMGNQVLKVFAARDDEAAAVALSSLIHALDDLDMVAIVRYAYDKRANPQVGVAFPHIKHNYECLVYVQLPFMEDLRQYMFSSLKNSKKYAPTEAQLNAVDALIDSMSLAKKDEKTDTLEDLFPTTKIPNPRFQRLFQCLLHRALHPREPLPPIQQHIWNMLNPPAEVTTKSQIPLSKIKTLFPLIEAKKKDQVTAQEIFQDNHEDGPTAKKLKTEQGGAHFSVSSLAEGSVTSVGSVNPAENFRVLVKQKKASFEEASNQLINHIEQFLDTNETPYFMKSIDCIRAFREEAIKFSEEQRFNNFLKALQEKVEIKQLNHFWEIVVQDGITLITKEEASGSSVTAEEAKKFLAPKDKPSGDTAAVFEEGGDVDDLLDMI
Protocol: As the first step to dissect the mechanism of action of Dbait molecules, a series of band-shift assays were carried out with different ^32P radio-labelled Dbait molecules in the presence of nuclear protein extracts from Hep2 cells according to standard protocol. Typically, 10 nM ^32P radio-labelled Dbait molecules were incubated in the presence of various concentrations of nuclear proteins (0, 10, 20, 40, 80, 160, and 320 ng/μL) at 30° C. for 10 minutes in TBE buffer. Then the samples were loaded on a 5% acrylamide native gel. The electrophoresis was run at 95V for 2 hours at 4° C. The gel was dried and scanned by phosphorimager (Molecular Dynamics).
For 32-bp Dbait molecules, the intensity of the retarded band 1 increases and then decreases as the concentration of protein increases, while the intensity of the retarded band 2 increases as a function of the concentration of nuclear protein extracts.
It is likely that band 1 has one Ku70/80 complex bound to the 16 to 32-bp Dbait, whereas the band 2 has two Ku70/80 complexes bound to the 32-bp Dbait molecules. Control experiments performed with purified Ku proteins confirmed this interpretation.

[2] = test system: DNA end-joining reaction in the nuclear extracts of Hep2 cells; test: DNA end-joining assay in Hep2 nuclear extract; assay type: biochemical, human; conditions: for ligation of DNA fragments in cell-free assay: 2 h incubation with various Dbait
Protocol: DNA end-joining was monitored by incubating ^32P-labeled 605-bp linear DNA fragments with Hep2 nuclear extract in the presence of various Dbait molecules. Ligation products migrate as dimers, trimers or tetramers, starting 605 bp monomer.
Approximately 16% of the ^32P-labeled blunt linear duplex DNA molecules were ligated into dimers and trimers during the first 2 h of incubation. The amount of high molecular weight ligation products increased up to 30% of the total input DNA after 16 h. […] In most experiments, Dbait32H (SEQ ID NO: 1) was added simultaneously with the labeled DNA fragments to the nuclear extract.
Various Dbait molecules were tested for their effect on the cell-free assay by adding the molecules to nuclear extract and incubating for 2 h with the DNA fragments.
DNA-PK activity was monitored using the kit SignaTECT DNA-dependent Protein Kinase Assay System (Promega, Madison, USA). Increasing amounts of Hep2 nuclear extract (cleaned of endogenous DNA by DEAE-Sepharose filtration) were assayed in the presence of 250 nM Dbait. Extract, biotinylated peptide substrate and various amount of nuclear extract were incubated 5 minutes at 30° C. with (γ-^32P)ATP according to manufacturer indications. The biotinylated substrate was capture on streptavidine membrane, washed and counted in a scintillation counter. Percentage of phosphorylation is calculated by dividing the bound radioactivity by the total count of (γ-^32P)ATP per sample. Reactions (10 μl) were carried out in 60 mM KOAc, 100 μg/ml BSA, 0.5 mM Mg(Cl)2, 1 μl T4 DNA ligase 10× buffer (Promega, Madison, USA). Nuclear extract and Dbait were incubated 2 minutes before addition of ^32P-labeled DNA (10 ng). Samples were incubated various time at 37° C. before ligation being stopped by 20 mM EDTA and 1 mg/ml Proteinase K addition. Ligation products were analyzed by electrophoresis through 0.7% agarose gels followed by autoradiography and quantification by phosphorimaging.

[3] = test system: GMA32 cells; test: FACS analysis of sub-G1 cells (cell death) in GMA32 cells; assay type: cell-based, Chinese hamster; conditions: GMA32, 4.5 μg Dbait with lipofectamine, no irradiation or mitotic inhibitor
Protocol: The GMA32 Chinese hamster fibroblast cells permissive of DNA breaks were maintained in MEM medium (Gibco) supplemented with 1 mM sodium pyruvate, 2 mM glutamine, 1×MEM non essential amino acids, 1× penicillin/streptomycin and 10% horse serum. Typically, 2×10^5 to 4×10^5 cells were seeded in medium without antibiotics, in 5 cm diameter Petri dishes 24 hours before the transfection of different Dbait molecules (4.5 μg) with lipofectamine 2000 (LifeTechnologies) as transfection agent (in a 1:3 ratio), according to the manufacturer's instructions. At the end of the transfection the cells were either irradiated (4 Gy) or treated with mitotic inhibitors: nocodazole (200 nM), navelbine (100 nM) or taxol (200 nM).
About 16 hour later the drug was removed and the cells were allowed to recover. Cell irradiation was performed with γ-rays from a ^137Cs source. After a 24 hours recovery, the cells were collected and used either for FACS, western blot analyses or to determine the clonogenicity (survival) and the effect of each treatment.
The M1 phase represents the percentage of cells in sub-G1 stage indicative of cell death.
The experiments were performed with a FACS calibur flow cytometer (Becton Dickinson). Cells were collected, suspended in 1 ml of cold GM buffer (6.5 mM glucose, 137 mM NaCl, 5.4 mM KCl, 2 mM Na2HPO4, 1 mM KHPO4, 0.5 mM EDTA), and stored at 4° C. for at least 2 hours after addition of 3 ml of cold 100% ethanol.
At that stage, cells were eventually washed with 1×PBS, then stained for 30 minutes at room temperature in PI solution (50 μg/ml propidium iodide, 25 μg/ml RNase A in 1×PBS buffer). 10,000 events were analyzed with Cellquest software, and cell aggregates were gated out. The percentage of cells with a sub-G1 content of DNA was scored.

[4] = test system: p53 serine 15 phosphorylation in GMA32 cells; test: Western blot of p53 serine 15 phosphorylation in GMA32 cells; assay type: cell-based, Chinese hamster; conditions: GMA32, Dbait with lipofectamine, no irradiation or mitotic inhibitor
Protocol: Further experiment was carried out in order to look for evidence of DNA damage signaling. The protein p53 is a well known major protein in mediating DNA damage signaling and in coordinating appropriate responses (DNA repair, apoptosis, etc.) by changing its phosphorylation status. In particular, the phosphorylation of serine 15 residue is involved in the interaction with MDM2 protein which acts as a feed back control Thus, the phosphorylation status of the serine 15 of p53 was assessed by Western blot.
For Western blot analysis, cells were lysed in Laemmli buffer. Equal amounts of lysates were resolved in 12% polyacrylamide gels. Proteins were transferred to nitrocellulose membranes, which were blocked with 5% nonfat milk (1 hour) before overnight incubation with anti-p53Ser15 antibody (9284, Cell Signaling) diluted 500 folds in TBST buffer (10 mM Tris-HCl pH7.5, 150 mM NaCl, 0.1% Tween 20) containing 5% nonfat milk. Blots were then incubated with horseradish peroxidase-conjugated goat anti-rabbit IgG secondary antibodies (P0448, Dako) diluted 1/5000 in TBST. Protein-antibody complexes were detected by enhanced chemiluminescence (RPN2106 ECL, Amersham).

Substance | binding of Ku [1] | ligation of DNA fragments in cell-free assay [2] | cell death (cells in sub-G1 stage) [3] | phosphorylation of p53 serine 15 [4] | retarded bands in band-shift assay [1] | DNA end-joining (ligation) ([2]; Dbait added 30 min after the nuclear extract (data not shown)) | DNA end-joining (ligation of 32P-labeled linear DNA fragments) ([2]; Dbait added simultaneously with fragments, 100-fold molar excess) | DNA end-joining (ligation) ([2]; Dbait incubated with the extract for 30 min before addition of fragments)
Dbait8H: hairpin double strand DNA with a stem of 8-bp (DNA ACGCACGG; DNA, backbone not given here; hairpin, hexaethyleneglycol loop, 3-bp phosphorothioate at free blunt end) | dID NO:t bind Ku | largely unaffected | failed to trigger cell death | Neither the shortest Dbait8H (SEQ ID NO: 4) nor single strand Dbaut32ss (SEQ ID NO: 1) molecules were able to induced significant phosphorylation | – | – | – | –
Dbait16H: hairpin double strand DNA with a stem of 16-bp (DNA ACGCACGGGTGTTGGG; DNA, backbone not given here; hairpin DNA with hexaethyleneglycol loop, 3-bp phosphorothioate at free blunt end) | bound only one Ku dimer | inhibited the ligation as efficiently as Dbait32H | intermediate | moderate phosphorylation | One retarded band | – | – | –
Dbait32H: hairpin double strand DNA with a stem of 32-bp, hexaethyleneglycol linker, phosphorothioate at the free blunt end (DNA ACGCACGGGTGTTGGGTCGTTTGTTCGGATCT; DNA, backbone not given here; hairpin, hexaethyleneglycol loop, 3-bp phosphorothioate at free blunt end) | – | – | Significant cell death | highly phosphorylated | two retarded band | no inhibition of the ligation | strongly inhibited | extent of inhibition was similar
Dbait32ss: 32-nt single strand DNA (SEQ ID NO: 1) (DNA ACGCACGGGTGTTGGGTCGTTTGTTCGGATCT; DNA, backbone not given here) | – | largely unaffected | moderate | Neither the shortest Dbait8H (SEQ ID NO: 4) nor single strand Dbaut32ss (SEQ ID NO: 1) molecules were able to induced significant phosphorylation | – | – | – | –
